# Data: US20180312542A1, “ENDOSOMAL ESCAPE PEPTIDES” (priority 2015, published 2018)
# What was measured:
# [1] = system: BSR.LNL.tdTomato cells; assay: ATP-dependent cell viability assay (CellTiterGlo) 48 h after treatment; assay type: cell-based, hamster; conditions: for viability: 250 nM recombinant fusion; for viable cells: 1 μM treatment
# Experimental: FIGS. 3A-3B. Efficacy and toxicity of recombinant expression fusions of aurein 1.2 (“E”) and citropin 1.3 (“U”). (FIG. 3A) Cytosolic Cre delivery results in recombination and tdTomato expression. The percentage of tdTomato positive cells was determined by flow cytometry. Protein fusions were delivered at 125 nM, 250 nM, 500 nM, and 1 μM. (FIG. 3B) Toxicity of aurein 1.2 and citropin 1.3 as determined by CellTiterGlo (Promega) assay. Protein fusions were delivered at 125 nM, 250 nM, 500 nM, and 1 μM. […] Cells were treated with 250 nM protein for 4 hours in serum-free media. Cells were washed and supplanted with full DMEM and incubated for 48 hours. Error bars represent the standard deviation of three independent biological replicates.
# Next, the toxicity of each fusion protein was evaluated at a range of concentrations (125 nM to 1 μM) using an ATP-dependent cell viability assay at 48 h after treatment. […] Applying 1 μM treatments decreased cell viability to 70% and 66%, respectively (FIG. 3B). In light of its activity and low cytotoxicity at 250 nM, the ability of aurein 1.2 to enhance cytosolic protein delivery was characterized in depth.
# (§1) Uptake and delivery assays for Cre fusion proteins were performed as previously described. Briefly, proteins were diluted in serum-free DMEM and incubated on the cells in 48-well plates for 4 hours at 37° C. Following incubation, the cells were washed three times with PBS+20 U/mL heparin. The cells were incubated a further 48 hours in serum-containing media prior to trypsinization and analysis by flow cytometry. All flow cytometry were carried out on a BD Fortessa flow cytometer (Becton-Dickinson) using 530/30 nm and 610/20 nm filter sets. Toxicity for aurein 1.2 and citropin 1.3 validation assays was determined using CellTiterGlo assay (Promega) in 96-well plates following manufacturer protocol. Toxicity for alanine scan mutational analysis was determined with LIVE/DEAD fixable far-red dead cell stain (Life Technologies) with 635 nm laser and 670/30 nm filter.
# [2] = system: BSR.LNL.tdTomato cells; assay: Cre delivery assay of expressed fusion proteins (tdTomato, flow cytometry); assay type: cell-based, hamster; conditions: for recombination signal above that of +36 GFP-Cre: 250 nM expressed fusion protein; for recombination levels higher than that of +36 GFP-Cre alone: 1 μM expressed fusion protein; for overall recombination efficiency versus aurein 1.2: variant fused to +36 GFP-Cre, 250 nM
# Experimental: FIGS. 3A-3B. Efficacy and toxicity of recombinant expression fusions of aurein 1.2 (“E”) and citropin 1.3 (“U”). […] The percentage of tdTomato positive cells was determined by flow cytometry. Protein fusions were delivered at 125 nM, 250 nM, 500 nM, and 1 μM. (FIG. 3B) Toxicity of aurein 1.2 and citropin 1.3 as determined by CellTiterGlo (Promega) assay. Protein fusions were delivered at 125 nM, 250 nM, 500 nM, and 1 μM. […] Cells were treated with 250 nM protein for 4 hours in serum-free media. Cells were washed and supplanted with full DMEM and incubated for 48 hours. Error bars represent the standard deviation of three independent biological replicates.
# (§2) FIGS. 4A-4B. Activity and cytotoxicity of aurein 1.2 variants fused to +36 GFP-Cre. (FIG. 4A) The percentage of tdTomato positive cells was determined by flow cytometry. (FIG. 4B) Toxicity as determined by CellTiterGlo (Promega) assay. […] Cells were treated with 250 nM protein for 4 hours in serum-free DMEM. Cells were washed and supplanted with full DMEM and incubated for 48 hours.
# Both aurein 1.2-+36 GFP-Cre and citropin 1.3-+36 GFP-Cre were cloned, expressed, and purified as fusion proteins.
# To identify the residues involved in enhancing non-endosomal protein delivery, an alanine scan of the 13 amino acid positions of aurein 1.2 was performed by cloning, expressing, and purifying each alanine mutant of aurein 1.2-+36 GFP-Cre. The resulting fusion proteins were assayed in BSR.LNL.tdTomato reporter cells as described above (Table 2). […] In total, 19 mutants of aurein 1.2 were generated and tested using the Cre recombination assay.
# as §1
# [3] = system: BSR.LNL.tdTomato cells; assay: Toxicity of aurein 1.2 variants fused to +36 GFP-Cre; assay type: cell-based, hamster; conditions: variant fused to +36 GFP-Cre, 250 nM
# Experimental: as §2
# To identify the residues involved in enhancing non-endosomal protein delivery, an alanine scan of the 13 amino acid positions of aurein 1.2 was performed by cloning, expressing, and purifying each alanine mutant of aurein 1.2-+36 GFP-Cre. The resulting fusion proteins were assayed in BSR.LNL.tdTomato reporter cells as described above (Table 2). Seven positions were moderately to highly intolerant of alanine substitution. Six positions retained >70% of the activity of unmutated aurein 1.2-+36 GFP-Cre (FIG. 4A). […]
# Uptake and delivery assays for Cre fusion proteins were performed as previously described. […] Toxicity for aurein 1.2 and citropin 1.3 validation assays was determined using CellTiterGlo assay (Promega) in 96-well plates following manufacturer protocol. Toxicity for alanine scan mutational analysis was determined with LIVE/DEAD fixable far-red dead cell stain (Life Technologies) with 635 nm laser and 670/30 nm filter.
# [4] = system: BSR.LNL.tdTomato cells; assay: Primary screen for cytosolic delivery of Cre recombinase (tdTomato, fluorescence image analysis); assay type: cell-based, hamster; conditions: for level of recombination in primary screen: 250 nM peptide-(+36 GFP)-Cre conjugate; for cells expressing tdTomato (recombined cells): 250 nM protein, 4 h serum-free media, then 48 h, sortase-conjugated peptide or no peptide
# Experimental: FIG. 2. Primary screen for cytosolic delivery of Cre recombinase in BSR.LNL.tdTomato cells. Initial screen of 20 peptide-(+36 GFP)-Cre conjugated proteins. Cytosolic Cre delivery results in recombination and tdTomato expression. The percentage of tdTomato positive cells was determined by fluorescence image analysis. […] Cells were treated with 250 nM protein for 4 hours in serum-free DMEM. Cells were washed and supplanted with full DMEM and incubated for 48 hours. Error bars represent the standard deviation of three independent biological replicates.
# The ability of each peptide-(+36 GFP)-Cre recombinase fusion when added to culture media to effect recombination was assayed in BSR.LNL.tdTomato cells, a hamster kidney cell line derived from BHK-21 (FIG. 8). Because Cre recombinase must enter the cell, escape endosomes, enter the nucleus, and catalyze recombination to generate tdTomato fluorescence, this assay reflects the availability of active, non-endosomal recombinase enzyme that reaches the nucleus. […] See, e.g., Dijkstra at al. Biochimica et Biophysica Acta (BBA)-Molecular Cell Research 1984, 804, 58.
# The reporter BSR.LNL.tdTomato cells were incubated with 250 nM of each peptide-(+36 GFP)-Cre protein in serum-free media.
# BSR.LNL.tdTomato cells were plated at 10,000 cells per well in black 384-well plates (Aurora Biotechnologies). Cells were treated with Cre fusion proteins diluted in serum-free DMEM 24 hours after plating and incubated for 4 hours at 37° C. Following incubation, the cells were washed three times with PBS+20 U/mL heparin. The cells were incubated a further 48 h in serum-containing media. Cells were fixed in 3% paraformaldehyde and stained with Hoescht 33342 nuclear dye. Images were acquired on an ImageXpress Micro automated microscope (Molecular Devices) using a 4× objective (binning 2, gain 2), with laser- and image-based focusing (offset −130 μm, range ±50 μm, step 25 μm). Images were exposed for 10 ms in the DAPI channel (Hoechst) and 500 ms in the dsRed channel (tdTomato). Image analysis was performed using the cell-scoring module of MetaXpress software (Molecular Devices). All nuclei were detected with a minimum width of 1 pixel, maximum width of 3 pixels, and an intensity of 200 gray levels above background. Positive cells were evaluated for uniform signal in the dsRed channel (minimum width of 5 pixels, maximum width of 30 pixels, intensity >200 gray levels above background, 10 μm minimum stained area). In total, nine images were captured and analyzed per well, and 16 wells were treated with the same fusion protein. The primary screen was completed in biological triplicate.
# [5] = system: BSR.LNL.tdTomato cells; assay: Delivery efficiency of aurein 1.2 in trans with +36 GFP-Cre (Cre recombination, flow cytometry); assay type: cell-based, hamster; conditions: 125-500 nM +36 GFP-Cre mixed with aurein 1.2 (1-100 μM) or aurein 1.2-+36 GFP (125-500 nM)
# Experimental: Determining the delivery efficiency of aurein 1.2 in trans with +36 GFP-Cre. 125 nM, 250 nM, or 500 nM+36 GFP-Cre was mixed with either aurein 1.2-+36 GFP (125 nM, 250 nM, 500 nM) or with aurein 1.2 (1 μM, 10 μM, 100 μM), then assayed for Cre-mediated recombination as measured by tdTomato signal during flow cytometry. […] The expressed fusion aurein 1.2-+36 GFP-Cre protein at 125 nM, 250 nM, or 500 nM was used as the positive control.
# To test this possibility, we assayed functional Cre recombinase delivery of +36 GFP-Cre mixed with aurein 1.2, or mixed with aurein 1.2-+36 GFP fusion protein lacking Cre at various concentrations (FIG. 9).
# [6] = system: cochlear hair cells and supporting cells of Cre reporter transgenic mice; assay: In vivo protein delivery of Cre recombinase into mouse neonatal cochleas; conditions: for cochlear cells survived as compared to +36 GFP-Cre treatment: scala media
# Experimental: FIGS. 6A-6C. In vivo protein delivery of Cre recombinase into mouse neonatal cochleas. 0.4 μL of 50 μM+36 GFP-Cre or aurein 1.2-+36 GFP-Cre were injected into the scala media. (FIG. 6A) Five days after injection, cochlea were harvested. Inner hair cells (IHC), outer hair cells (OHC) and supporting cells in the sensory epithelium (SE) were imaged for the presence of tdTomato, which is only expressed following Cre-mediated recombination. Hair cells were labeled with antibodies against the hair-cell marker Myo7a. (FIG. 6B) To evaluate cytotoxicity, the number of outer hair cells and inner hair cells were measured by counting DAPI-stained cells. (FIG. 6C) The percentage of tdTomato positive cells, reflecting successful delivery of functional Cre recombinase, was determined by fluorescence imaging.
# To evaluate the ability of aurein 1.2 to increase the efficacy of cationic protein delivery in vivo, proteins were delivered to the inner ear of Cre reporter transgenic mice that express tdTomato upon Cre-mediated recombination. This animal model was chosen due to its confined injection volume, the presence of well-characterized cell types, and the existence of genetic deafness models that would facilitate future studies of protein delivery to treat hearing loss.
# Anesthetized postnatal day 2 (P2) mice were injected with 0.4 μL of 50 μM+36 GFP-Cre or aurein 1.2-+36 GFP-Cre solutions in the scala media to access the cochlear cells. Five days after injection, the cochleas were harvested for immunolabeling of inner ear cell markers and imaging for tdTomato florescence (FIG. 6A). Both the hair cells (Myo7a+) and supporting cells (Myo7a−) were evaluated for td Tomato signal. The total number of hair cells and supporting cells (by DAPI labeling) in the sensory epithelium (SE) was used to determine the relative toxicity of aurein 1.2-+36 GFP-Cre to the baseline treatment of +36 GFP-Cre ([…]).
# P1-2 Gt(ROSA)26Sor^tm14(CAG-tdTomato)Hze mice were used for aurein 1.2-+36-GFP-Cre and +36-GFP-Cre injection. The Rosa26-tdTomato mice were from the Jackson Laboratory. Animals were used under protocols approved by the Massachusetts Eye & Ear Infirmary IACUC committee. Mice were anesthetized by hypothermia on ice. Cochleostomies were performed by making an incision behind the ear to expose the cochlea. Glass micropipettes held by a micromanipulator were used to deliver the complex into the scala media, which allows access to inner ear hair cells. The total delivery volume for every injection was 0.4 μL per cochlea and the release was controlled by a micromanipulator at the speed of 69 nL/min.
# 5 days after injection, the mice were sacrificed and cochlea were harvested by standard protocols. See, e.g., Sage et al. Science 2005, 307, 1114. For immunohistochemistry, antibodies against hair-cell markers (Myo7a) and supporting cells (Sox2) were used following a previously described protocol. To quantify the number of tdTomato positive cells after aurein 1.2-+36-GFP-Cre and +36-GFP-Cre, we counted the total number of inner and outer hair cells in a region spanning 100 μm in the apex, middle, and base turn of the cochlea.
# [7] = middle, 0.4 μL of 50 μM, 5 days
compound,measurement,setting,value
"citropin 1.3-+36 GFP-Cre: fusion protein of citropin 1.3, +36 GFP and Cre recombinase, SEQ ID NO: 78",viability,[1],84%
same,viable cells,[1],66%
same,recombination signal above that of +36 GFP-Cre,[2],did not induce any enhanced Cre delivery
same,recombination levels higher than that of +36 GFP-Cre alone,[2],3.0 fold
"GLFDIIKRIAESF [K8R, aurein 1.2 variant, expressed as recombinant fusion protein with +36 GFP-Cre]",toxicity versus aurein 1.2,[3],increased toxicity
same,overall recombination efficiency versus aurein 1.2,[2],potentially improved
GLFDIIKKVASVIGGL [citropin 1.3],level of recombination in primary screen,[4],moderate level of recombination
"GLFDIIKKIAEAF [S12A, aurein 1.2 variant, expressed as recombinant fusion protein with +36 GFP-Cre]",toxicity versus aurein 1.2,[3],increased toxicity
same,overall recombination efficiency versus aurein 1.2,[2],potentially improved
GLFDIIKKIAESF [aurein 1.2],effect on functional delivery of +36 GFP-Cre when added in trans,[5],did not affect
same,level of recombination in primary screen,[4],highest level of recombination
same,potency of Cre delivery into cochlear hair cells when fused with aurein 1.2 versus absence of the peptide,"[6]; live mice, inner ear",> 20 fold
"CCN(CC)CCCC(C)Nc1ccnc2cc(Cl)ccc12 (stereo not shown) [chloroquine, reference compound]",recombined cells,[4]; 250 nM +36 GFP-Cre incubated with 100 μM chloroquine (positive control),48%
"aurein 1.2-+36 GFP-Cre: fusion protein of aurein 1.2, +36 GFP and Cre recombinase, SEQ ID NO: 77",viability,[1],87%
same,viable cells,[1],70%
same,cells expressing tdTomato (recombined cells),[4],40%
same,"Cre-mediated recombination, inner hair cells (IHC)","[6]; apex, 0.4 μL of 50 μM, 5 days",100%
same,"Cre-mediated recombination, outer hair cells (OHC)","[6]; apex, 0.4 μL of 50 μM, 5 days",96%
same,cochlear cells survived as compared to +36 GFP-Cre treatment,"[6]; apex, 0.4 μL of 50 μM, 5 days",96%
same,"Cre-mediated recombination, inner hair cells (IHC)","[6]; base, 0.4 μL of 50 μM, 5 days",70%
same,"Cre-mediated recombination, outer hair cells (OHC)","[6]; base, 0.4 μL of 50 μM, 5 days",69%
same,cochlear cells survived as compared to +36 GFP-Cre treatment,"[6]; base, 0.4 μL of 50 μM, 5 days",66%
same,"Cre-mediated recombination, inner hair cells (IHC)",[6]; [7],94%
same,"Cre-mediated recombination, outer hair cells (OHC)",[6]; [7],91%
same,cochlear cells survived as compared to +36 GFP-Cre treatment,[6]; [7],92%
same,recombination signal above that of +36 GFP-Cre,[2],10.4 fold
same,recombination levels higher than that of +36 GFP-Cre alone,[2],3.8 fold
"+36 GFP-Cre: superpositively charged GFP fused to Cre recombinase, SEQ ID NO: 76; no-peptide control [reference compound]",viable cells,[1],85%
same,cells expressing tdTomato (recombined cells),[4],4.5%
same,recombination in middle or base cochlear hair cells or cochlear supporting cells,"[6]; 0.4 μL of 50 μM, 5 days",not in the middle or base of the cochlear hair cells or any cochlear supporting cells
same,"Cre-mediated recombination, inner hair cells (IHC)","[6]; apex, 0.4 μL of 50 μM, 5 days",4.4%
